The source made the active and inactive calls. The rule behind the calls is not given here.
How the values were obtained:
PC-12 [1] = assay: Neuroprotective activity against rat PC12 cells assessed as reduction in amyloid beta (25 to 35)-induced cytotoxicity at 15 uM incubated for 4 hrs followed by amyloid beta (25 to 35) treatment for 24 hrs by MTT assay relative to control; type: functional; parameters: scale not given: the % may be the effect or the level left; conditions: time 28 hrs
[2] = C0 in Sprague-Dawley rat at 10 mg/kg,iv measured at 0.083 to 24 hrs post administration by LC-MS/MS analysis; type: ADME, organism-based; conditions: in vivo, time 0.083-24 hrs
[3] = Half life in Sprague-Dawley rat at 60 mg/kg,po measured at 0.25 to 24 hrs post administration by LC-MS/MS analysis; type: ADME, organism-based; conditions: in vivo, time 0.25-24 hrs
[4] = Volume of distribution of steady state in Sprague-Dawley rat at 10 mg/kg,iv measured at 0.083 to 24 hrs post administration by LC-MS/MS analysis; type: ADME, organism-based; conditions: in vivo, time 0.083-24 hrs, read-out: Vdss
[5] = Cmax in Sprague-Dawley rat at 60 mg/kg,po measured at 0.25 to 24 hrs post administration by LC-MS/MS analysis; type: ADME, organism-based; parameters: dose 60 mg/kg, time upper 24 hrs, time lower 0.25 hrs, route po; conditions: in vivo
[6] = Tmax in Sprague-Dawley rat at 60 mg/kg,po measured at 0.25 to 24 hrs post administration by LC-MS/MS analysis; type: ADME, organism-based; conditions: in vivo, time 0.25-24 hrs
[7] = MRT (0 to t) in Sprague-Dawley rat at 60 mg/kg,po measured at 0.25 to 24 hrs post administration by LC-MS/MS analysis; type: ADME, organism-based; conditions: in vivo, time 0.25-24 hrs
PC-12 [8] = assay: Cytotoxicity against rat PC12 cells assessed as effect on survival at < 60 uM incubated for 24 hrs by MTT assay; type: toxicity, cell-based; conditions: pc-12, 24 h
HepG2 [9] = assay: Cytotoxicity against human HepG2 cells assessed as effect on survival at < 60 uM incubated for 24 hrs by MTT assay; type: toxicity, cell-based; conditions: hepg2, 24 h
HUVEC [10] = assay: Cytotoxicity against human HUVEC cells assessed as effect on survival at < 60 uM incubated for 24 hrs by MTT assay; type: toxicity, cell-based
PC-12 [11] = assay: Cytotoxicity against rat PC12 cells assessed as decrease in cell viability at 120 uM incubated for 24 hrs by MTT assay; type: toxicity, cell-based; conditions: pc-12, 24 h
N2a = assay: Cytotoxicity against mouse Neuro2a cells assessed as decrease in cell viability at 120 uM incubated for 24 hrs by MTT assay; type: toxicity, cell-based
HepG2 [12] = assay: Cytotoxicity against human HepG2 cells assessed as decrease in cell viability at 120 uM incubated for 24 hrs by MTT assay; type: toxicity, cell-based; conditions: hepg2, 24 h
HUVEC [13] = assay: Cytotoxicity against human HUVEC cells assessed as decrease in cell viability at 120 uM incubated for 24 hrs by MTT assay; type: toxicity, cell-based
[14] = Cytotoxicity against human HepG2 cells assessed as cell viability at 120 uM incubated for 24 hrs by MTT assay; type: toxicity, cell-based; conditions: read-out: Activity
PC-12 [15] = assay: Neuroprotective activity against rat PC12 cells assessed as reduction in amyloid beta (25 to 35)-induced cytotoxicity incubated for 4 hrs followed by amyloid beta (25 to 35) treatment for 24 hrs by MTT assay; type: functional, cell-based
PC-12 [16] = assay: Neuroprotective activity against amyloid beta (25 to 35)-induced rat PC12 cells assessed as reduction in amyloid beta (25 to 35)-induced apoptosis rate at 7.5 uM incubated for 15 mins by Annexin V-FITC/PI staining based flow cytometric analysis (reference value: 2.9%); type: functional; parameters: scale not given: the % may be the effect or the level left; conditions: 0.25 h
[17] = target: Amyloid-beta precursor protein (Homo sapiens) (UniProt P05067); assay: Disaggregation of amyloid beta (25 to 35) (unknown origin) self aggregation at 15 uM incubated for 24 hrs by transmission electron microscopy analysis
PC-12 [18] = assay: Neuroprotective activity against amyloid beta (25 to 35)-induced rat PC12 cells assessed as decrease in total tau protein expression level at 7.5 to 30 uM preincubated for 30 mins followed by amyloid beta (25 to 35) addition and measured after 24 hrs by western blot assay; type: functional, cell-based; conditions: dose 7.5-30 µM, time 24.5 hrs
PC-12 [19] = assay: Neuroprotective activity against amyloid beta (25 to 35)-induced rat PC12 cells assessed as decrease in TNF-alpha expression level at 7.5 to 30 uM preincubated for 30 mins followed by amyloid beta (25 to 35) addition and measured after 24 hrs by western blot assay; type: functional, cell-based; conditions: dose 7.5-30 µM, time 24.5 hrs
PC-12 [20] = assay: Neuroprotective activity against amyloid beta (25 to 35)-induced rat PC12 cells assessed as decrease in p38 expression level at 7.5 to 30 uM preincubated for 30 mins followed by amyloid beta (25 to 35) addition and measured after 24 hrs by western blot assay; type: functional, cell-based; conditions: dose 7.5-30 µM, time 24.5 hrs
PC-12 [21] = assay: Neuroprotective activity against amyloid beta (25 to 35)-induced rat PC12 cells assessed as decrease in JNK phosphorylation level at 7.5 to 30 uM preincubated for 30 mins followed by amyloid beta (25 to 35) addition and measured after 24 hrs by western blot assay; type: functional, cell-based; conditions: dose 7.5-30 µM, time 24.5 hrs
PC-12 [22] = assay: Neuroprotective activity against amyloid beta (25 to 35)-induced rat PC12 cells assessed as decrease in NF-kappaB expression level at 7.5 to 30 uM preincubated for 30 mins followed by amyloid beta (25 to 35) addition and measured after 24 hrs by western blot assay; type: functional, cell-based; conditions: dose 7.5-30 µM, time 24.5 hrs
Mus musculus [23] = assay: Antialzheimer activity against amyloid beta (25 to 35)-induced cognitive deficit ICR mouse model assessed as effect on total number of arm enteries at 12.5 to 50 mg/kg,po observed after 11 days of administration by Y maze test; type: functional, organism-based; conditions: dose 12.5-50 mg/kg, time 11.0 day
Mus musculus [24] = assay: Antialzheimer activity against amyloid beta (25 to 35)-induced cognitive deficit ICR mouse model assessed as increase in discrimination index at 25 mg/kg,po observed after 1 hr of administration by novel object recognition test; type: functional, organism-based
Mus musculus [25] = assay: Antialzheimer activity against amyloid beta (25 to 35)-induced cognitive deficit ICR mouse model assessed as increase in preferential index at 25 mg/kg,po observed after 1 hr of administration by novel object recognition test; type: functional, organism-based
Mus musculus [26] = assay: Antialzheimer activity against amyloid beta (25 to 35)-induced cognitive deficit ICR mouse model assessed as increase in preferential index at 50 mg/kg,po observed after 1 hr of administration by novel object recognition test; type: functional, organism-based
Mus musculus [27] = assay: Antialzheimer activity against amyloid beta (25 to 35)-induced cognitive deficit ICR mouse model assessed as increase in discrimination index at 25 mg/kg,po observed after 24 hrs of administration by novel object recognition test; type: functional, organism-based
Mus musculus [28] = assay: Antialzheimer activity against amyloid beta (25 to 35)-induced cognitive deficit ICR mouse model assessed as increase in discrimination index at 50 mg/kg,po observed after 24 hrs of administration by novel object recognition test; type: functional, organism-based
Mus musculus [29] = assay: Antialzheimer activity against amyloid beta (25 to 35)-induced cognitive deficit ICR mouse model assessed as increase in preferential index at 25 mg/kg,po observed after 24 hrs of administration by novel object recognition test; type: functional, organism-based
Mus musculus [30] = assay: Antialzheimer activity against amyloid beta (25 to 35)-induced brain injury ICR mouse model assessed as attenuation of pathological change in hippocampal CA3 region at 12.5 to 50 mg/kg,po administrated for 21 days by hematoxylin and eosin staining based microscopic analysis; type: functional, organism-based; conditions: dose 12.5-50 mg/kg, time 21.0 day
Mus musculus [31] = assay: Antialzheimer activity against amyloid beta (25 to 35)-induced brain injury ICR mouse model assessed as increase in NeuN expression level in cerebral cortex at 50 mg/kg,po administrated for 21 days by immunohistochemistry analysis; type: functional, organism-based; conditions: time 21.0 day

Sequence of Amyloid-beta precursor protein (Homo sapiens) (P05067 whole entry): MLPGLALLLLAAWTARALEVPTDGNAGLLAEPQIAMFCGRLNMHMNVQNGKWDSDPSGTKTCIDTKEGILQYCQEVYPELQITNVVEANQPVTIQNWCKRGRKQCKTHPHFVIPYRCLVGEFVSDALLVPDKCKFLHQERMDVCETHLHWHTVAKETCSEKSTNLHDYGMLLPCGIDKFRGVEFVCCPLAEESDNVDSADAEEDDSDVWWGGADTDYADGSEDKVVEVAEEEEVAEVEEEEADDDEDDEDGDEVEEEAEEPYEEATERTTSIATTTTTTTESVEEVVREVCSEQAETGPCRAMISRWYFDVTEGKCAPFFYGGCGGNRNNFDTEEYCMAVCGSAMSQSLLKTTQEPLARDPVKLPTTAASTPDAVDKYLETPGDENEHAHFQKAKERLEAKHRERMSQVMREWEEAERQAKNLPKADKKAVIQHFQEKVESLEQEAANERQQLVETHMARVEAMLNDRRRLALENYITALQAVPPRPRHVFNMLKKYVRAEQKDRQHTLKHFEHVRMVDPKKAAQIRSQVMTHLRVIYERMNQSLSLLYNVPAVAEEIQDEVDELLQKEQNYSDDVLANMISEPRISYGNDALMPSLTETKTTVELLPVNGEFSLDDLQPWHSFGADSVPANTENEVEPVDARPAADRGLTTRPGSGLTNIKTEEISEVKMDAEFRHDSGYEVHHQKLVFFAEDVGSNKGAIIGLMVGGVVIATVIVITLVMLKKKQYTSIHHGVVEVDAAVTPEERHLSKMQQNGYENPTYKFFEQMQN

Work on `CC1(C)CCC[C@](C)([C@H]2CC[C@]3(C)[C@@H]2[C@H](O)C[C@@H]2[C@@]4(C)CC[C@H](OC(=O)NCc5ccccc5)C(C)(C)[C@@H]4CC[C@]23C)O1` yielded an Activity (PC-12 [1]) of 73.01%, a C0 [2] of 237 µg/mL and a half-life [3] of 49 min. For the same compound, the Vd [4] was 0.133 L/kg, the Cmax [5] was 220 ng/mL and the Tmax [6] was 1.33 h. For the same compound, the MRT last [7] was 2.24 h, the Activity (PC-12 [8]) was “Non-Toxic” and the Activity (HepG2 [9]) was “Non-Toxic”. For the same compound, the Activity (HUVEC [10]) was “Non-Toxic”, the Activity (PC-12 [11]) was “Toxic” and the Activity (N2a) was “Toxic”. For the same compound, the Activity (HepG2 [12]) was “Toxic”, the Activity (HUVEC [13]) was “Toxic” and the viability at 24 h, 120 µM [14] was over 50%. For the same compound, the EC50 (PC-12 [15]) was 13.2 µM, the Activity (PC-12 [16]) was 14.1% and the Activity [17] was “Active”. For the same compound, the Activity (PC-12 [18]) was “Active”, the Activity (PC-12 [19]) was “Active” and the Activity (PC-12 [20]) was “Active”. For the same compound, the Activity (PC-12 [21]) was “Active”, the Activity (PC-12 [22]) was “Active” and the Activity (Mus musculus [23]) was “inactive”. The Activity (Mus musculus [24]) was “inactive”, the Activity (Mus musculus [25]) was “inactive” and the Activity (Mus musculus [26]) was “inactive”. For the same compound, the Activity (Mus musculus [27]) was “Active”, the Activity (Mus musculus [28]) was “Active” and the Activity (Mus musculus [29]) was “Active”. The Activity (Mus musculus [30]) was “Active” and the Activity (Mus musculus [31]) was “Active”.
